Assay results reported in patent publication US9328084B2, “Nitrogen-containing biphenyl compounds, pharmaceutical compositions of same, preparation methods and anti-HIV-1 uses thereof” (Kunming Institute of Botany, The Chinese Academy of Sciences, priority 2010, dated 2016).
Read-outs that look alike come from different tables or passages of the source.

Assays:
Format in all cases: cell-based
[1] = test system: C8166 cells; assay: Cytotoxicity test on C8166 host cell (MTT colorimetry); conditions: 3 days
Method: (§1) Cytotoxicity Test of the Compounds 5-12 Obtained in the Above Examples on C8166 Host Cell 100 μL of 4×10^5/mL C8166 cell suspension was mixed with different candidate compound solutions. Set three repeated wells. Meanwhile, set compound-free control wells. Culture was conducted at 37° C. and 5% CO2 for three days. Cell toxicity was tested using MTT colorimetry. OD value was tested using ELX800 ELISA instrument, with the measurement wavelength of 595 nm and the reference wavelength of 630 nm. […] Calculation method and formula: dose-response curve was plotted according to the experimental results; according to Reed & Muench method, 50% effective concentration (EC50) to inhibit viruses, 50% Cytotoxic Concentration (CC50) and anti-HIV-1 activity in the Therapeutic Index (TI) were calculated according to the formula: TI=CC50/EC50.

[2] = test system: HIV-1IIIB; assay: Inhibition test on HIV-1IIIB induced cytopathic effect (syncytium formation) of C8166; conditions: for EC50: Human immunodeficiency virus 1, C8166, 72 h, HIV-1IIIB in C8166 cells, 3 days; for Therapeutic index (TI): TI=CC50/EC50; for anti-HIV-1 activity (in words): comment on Table 1, relative to Compound 5
Method: Inhibition Test of the Compounds 5-12 Obtained in the Above Examples on HIV-1IIIB Induced Cytopathic Effect (CPE) of C8166 8×10^5/mL C8166 cell suspension was inoculated in 50 μL/well into a 96-well cell culture plate containing compound diluted in multiple proportions in 100 μL/well, to which was then added 50 μL of HIV-1IIIB diluted supernatant (M.O.I. 0.0016). Set three repeated wells, at the same time, set normal cell control wells that are free of the compound. Culture was conducted at 37° C. and 5% CO2 for three days. Syncytium formation was counted using an inverted microscope (100×). EC50 (50% Effective Concentration), i.e., the concentration of the compound that inhibits 50% syncytium formation, was calculated. Calculation method and formula: dose-response curve was plotted according to the experimental results; according to Reed & Muench method, 50% effective concentration (EC50) to inhibit viruses, 50% Cytotoxic Concentration (CC50) and anti-HIV-1 activity in the Therapeutic Index (TI) were calculated according to the formula: TI=CC50/EC50.

[3] = Cytotoxicity test on C8166 host cell (MTT colorimetry); conditions: human, C8166 cells (T lymphocyte cell line)
Method: as §1

[4] = read-out: Syncytia inhibition (EC50) 2
[5] = read-out: Syncytia inhibition (EC50) 1

Row | Compound | toxicity (CC50) 2 [1] | EC50 [2, 4] | Therapeutic index (TI) [2] | anti-HIV-1 activity (in words) [2] | CC50 at 3 days ([3]; read-out: toxicity (CC50) 1) | CC50 at 3 days ([3]; read-out: toxicity (CC50) 2) | EC50 [2, 5]
1 | COC(=O)c1cc2c(c(OC)c1-c1ccc(N(C)C)cc1)OCO2 [Compound 5] | ≥ 411.41 µg/mL | 0.14 µg/mL | >2840.91 | very significant anti-HIV-1 activity | – | – | –
2 | COC(=O)c1cc2c(c(OC)c1-c1ccc(N(C)C)c(C)c1)OCO2 [Compound 6] | – | 0.14 µg/mL | >2551.02 | – | > 1250 µM | ≥ 358 µg/mL | 0.49 µM
3 | COc1c2c(cc(C(=O)O)c1-c1ccc(N(C)C)cc1)OCO2 [Compound 9] | – | ≥ 7.88 µg/mL | <25.97 | activity declined notably | 649 µM | 205 µg/mL | > 25 µM
4 | COC(=O)c1cc2c(c(OC)c1-c1ccc(N3CCOCC3)cc1)OCO2 [Compound 7] | – | 0.23 µg/mL | 1376.35 | – | 881 µM | 317 µg/mL | 0.64 µM
5 | COC(=O)c1cc2c(c(OC)c1-c1ccc(N(C)C)cc1)OCO2.Cl [Compound 10] | ≥ 456.38 µg/mL | 0.15 µg/mL | >2976.19 | activity was increased | – | – | 0.42 µM
6 | COC(=O)c1cc2c(c(OC)c1-c1ccc([N+](C)(C)Cc3ccccc3)cc1)OCO2.[Br-] [Compound 12] | – | 3.74 µg/mL | 7.10 | – | 53.3 µM | 26.6 µg/mL | 7.5 µM
7 | Br.COC(=O)c1cc2c(c(OC)c1-c1ccc(N(C)C)cc1)OCO2 [Compound 11] | 29.43 µg/mL | 0.26 µg/mL | 114.19 | – | – | – | –
8 | COC(=O)c1cc2c(c(OC)c1-c1ccc(N(c3ccccc3)c3ccccc3)cc1)OCO2 [Compound 8] | – | 0.28 µg/mL | 862.52 | – | 802 µM | 245 µg/mL | 0.93 µM
